The source made the active and inactive calls. The rule behind the calls is not given here.
System: rodent carcinogenicity bioassays, tumor incidence
Assay: CCRIS carcinogenicity studies
Summary of the method: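 NCI-built, expert-reviewed records of carcinogenicity and related test outcomes (mutagenicity, tumor promotion/inhibition) compiled from published and report sources, historical span 1985-2011, not updated.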

## S=[Se]
Species: MOUSE, Strain/Sex: B6C3F1/FEMALE, Route: GAVAGE, Dose: 0, 20, 100 MG/KG IN 0.5% AQ CMC, Dose: 0, 20, 100 MG/KG IN 0.5% AQ CMC, Tumor Site: Type of Lesion: LUNG: ALVEOLAR/BRONCHIOLAR ADENOMA OR CARCINOMA, LIVER: HEPATOCELLULAR CARCINOMA
  carcinogen call: active; positive
Species: MOUSE, Strain/Sex: B6C3F1/MALE, Route: GAVAGE, Dose: 0, 20, 100 MG/KG IN 0.5% AQ CMC, Dose: 0, 20, 100 MG/KG IN 0.5% AQ CMC
  carcinogen call: inactive; negative
Species: MOUSE, Strain/Sex: ICR/FEMALE, Route: DERMAL, Dose: 0, 0.5, 1.0 MG/KG IN SALINE SOLN CONT 0.5% CMC 3/WK FOR 86 WK, Dose: 0, 0.5, 1.0 MG/KG IN SALINE SOLN CONT 0.5% CMC 3/WK FOR 86 WK
  carcinogen call: inactive; negative
Species: MOUSE, Strain/Sex: ICR/MALE, Route: DERMAL, Dose: 0, 0.5, 1.0 MG/KG IN SALINE SOLN CONT 0.5% CMC 3/WK FOR 86 WK, Dose: 0, 0.5, 1.0 MG/KG IN SALINE SOLN CONT 0.5% CMC 3/WK FOR 86 WK
  carcinogen call: inactive; negative
Species: RAT, Strain/Sex: F344/FEMALE, Route: GAVAGE, Dose: 0, 3, 15 MG/KG IN 0.5% AQ CMC, Dose: 0, 3, 15 MG/KG IN 0.5% AQ CMC, Tumor Site: Type of Lesion: LIVER: HEPATOCELLULAR CARCINOMA OR NEOPLASTIC NODULE
  carcinogen call: active; positive
Species: RAT, Strain/Sex: F344/MALE, Route: GAVAGE, Dose: 0, 3, 15 MG/KG IN 0.5% AQ CMC, Dose: 0, 3, 15 MG/KG IN 0.5% AQ CMC, Tumor Site: Type of Lesion: LIVER: HEPATOCELLULAR CARCINOMA OR NEOPLASTIC NODULE
  carcinogen call: active; positive

## O=[N+]([O-])c1ccc(OC2CO2)cc1 (stereo unspecified)
Species: MOUSE, Strain/Sex: B6C3F1/MALE, Route: INTRAPERITONEAL, Dose: 0, 60 NMOL/G BW IN 10 µL TRIOCTANOIN ONCE (STUDY DURATION: 10 MO), Tumor Site: Type of Lesion: LIVER: HEPATOMA
  carcinogen call: active; positive

## CC(C)CCC[C@@H](C)[C@H]1CC[C@H]2[C@@H]3C[C@H]4O[C@]45C[C@@H](O)CC[C@]5(C)[C@H]3CC[C@]12C
Species: RAT, Strain/Sex: STRAIN-CD/FEMALE, Route: INJECTION, Dose: 0, 12.3 UMOL (TOTAL DOSE) 1/6 INJECTED UNDER EACH OF 3 THORACIC AND 3 INGUINAL NIPPLES ONCE (STUDY DURATION: 44 WK)
  carcinogen call: inactive; negative

## C=CCN=C=S
Species: MOUSE, Strain/Sex: B6C3F1/FEMALE, Route: GAVAGE, Dose: 0, 12, 25 MG/KG IN CORN OIL FOR 103 WK (STUDY DURATION: 103 WK), Dose: 0, 12, 25 MG/KG IN CORN OIL FOR 103 WK (STUDY DURATION: 103 WK)
  carcinogen call: inactive; negative
Species: MOUSE, Strain/Sex: B6C3F1/MALE, Route: GAVAGE, Dose: 0, 12, 25 MG/KG IN CORN OIL FOR 103 WK (STUDY DURATION: 103 WK), Dose: 0, 12, 25 MG/KG IN CORN OIL FOR 103 WK (STUDY DURATION: 103 WK)
  carcinogen call: inactive; negative
Species: RAT, Strain/Sex: F344/FEMALE, Route: GAVAGE, Dose: 0, 12, 25 MG/KG IN CORN OIL FOR 103 WK (STUDY DURATION: 103 WK), Dose: 0, 12, 25 MG/KG IN CORN OIL FOR 103 WK (STUDY DURATION: 103 WK), Tumor Site: Type of Lesion: INTEGUMENTARY SYSTEM (SUBCUTANEOUS TISSUE): FIBROSARCOMA
  carcinogen call: equivocal
Species: RAT, Strain/Sex: F344/MALE, Route: GAVAGE, Dose: 0, 12, 25 MG/KG IN CORN OIL FOR 103 WK (STUDY DURATION: 103 WK), Dose: 0, 12, 25 MG/KG IN CORN OIL FOR 103 WK (STUDY DURATION: 103 WK), Tumor Site: Type of Lesion: URINARY BLADDER: TRANSITIONAL CELL PAPILLOMA
  carcinogen call: active; positive

## CNC(=O)ON=C(SC)C(=O)N(C)C
Species: MOUSE, Strain/Sex: CD-1/FEMALE, Route: ORAL, Dose: 0, 25, 50, 75 PPM IN DIET FOR 2 YR (STUDY DURATION: 2 YR), Dose: 0, 25, 50, 75 PPM IN DIET FOR 2 YR (STUDY DURATION: 2 YR)
  carcinogen call: inactive; negative
Species: MOUSE, Strain/Sex: CD-1/MALE, Route: ORAL, Dose: 0, 25, 50, 75 PPM IN DIET FOR 2 YR (STUDY DURATION: 2 YR), Dose: 0, 25, 50, 75 PPM IN DIET FOR 2 YR (STUDY DURATION: 2 YR)
  carcinogen call: inactive; negative
Species: RAT, Strain/Sex: CRL:CD/FEMALE, Route: ORAL, Dose: 0, 50, 100, 150 PPM IN DIET FOR 2 YR (STUDY DURATION: 2 YR), Dose: 0, 50, 100, 150 PPM IN DIET FOR 2 YR (STUDY DURATION: 2 YR)
  carcinogen call: inactive; negative
Species: RAT, Strain/Sex: CRL:CD/MALE, Route: ORAL, Dose: 0, 50, 100, 150 PPM IN DIET FOR 2 YR (STUDY DURATION: 2 YR), Dose: 0, 50, 100, 150 PPM IN DIET FOR 2 YR (STUDY DURATION: 2 YR)
  carcinogen call: inactive; negative

## O=NN(CCCC(F)(F)F)CCCC(F)(F)F
Species: RAT, Strain/Sex: SPRAGUE-DAWLEY/MALE,FEMALE, Route: GAVAGE, Dose: 1.5, 7.5% IN VEGETABLE OIL 2/WK FOR UP TO 32 WK, Tumor Site: Type of Lesion: LIVER: HEPATOCELLULAR CARCINOMA, LUNG: SQUAMOUS CELL CARCINOMA, ADENOCARCINOMA
  carcinogen call: active; positive

## CN(C)CCN(Cc1ccccc1)c1ccccn1
Species: RAT, Strain/Sex: SPRAGUE-DAWLEY/FEMALE, Route: ORAL, Dose: 0, 500, 1000 PPM IN DRINKING WATER 5D/WK FOR LIFE (STUDY DURATION: 493-754 D), Dose: 0, 500, 1000 PPM IN DRINKING WATER 5D/WK FOR LIFE (STUDY DURATION: 493-754 D)
  carcinogen call: inactive; negative
Species: RAT, Strain/Sex: SPRAGUE-DAWLEY/MALE, Route: ORAL, Dose: 0, 500, 1000 PPM IN DRINKING WATER 5D/WK FOR LIFE (STUDY DURATION: 529-600 D), Dose: 0, 500, 1000 PPM IN DRINKING WATER 5D/WK FOR LIFE (STUDY DURATION: 529-600 D)
  carcinogen call: inactive; negative

## CC(C)[N+](=O)[O-]
Species: RAT, Route: INHALATION, Tumor Site: Type of Lesion: LIVER
  carcinogen call: active; positive

## Nc1ccc([N+](=O)[O-])cc1N
Species: MOUSE, Strain/Sex: B6C3F1/FEMALE, Route: ORAL, Dose: 0, 3750, 7500 PPM IN DIET, Dose: 0, 3750, 7500 PPM IN DIET
  carcinogen call: inactive; negative
Species: MOUSE, Strain/Sex: B6C3F1/MALE, Route: ORAL, Dose: 0, 3750, 7500 PPM IN DIET, Dose: 0, 3750, 7500 PPM IN DIET
  carcinogen call: inactive; negative
Species: RAT, Strain/Sex: F344/FEMALE, Route: ORAL, Dose: 0, 375, 750 PPM IN DIET, Dose: 0, 375, 750 PPM IN DIET
  carcinogen call: inactive; negative
Species: RAT, Strain/Sex: F344/MALE, Route: ORAL, Dose: 0, 375, 750 PPM IN DIET, Dose: 0, 375, 750 PPM IN DIET
  carcinogen call: inactive; negative

## Cc1ccc2c3c(cccc13)-c1ccccc1-2
Species: MOUSE, Strain/Sex: CD-1/FEMALE, Route: INTRAPERITONEAL, Dose: 0, 3.46, 17.3 UMOL (TOTAL DOSE) IN DMSO ADMINISTERED ON DAYS 1,8, AND 15 OF LIFE (STUDY DURATION: 52 WK), Dose: 0, 3.46, 17.3 UMOL (TOTAL DOSE) IN DMSO ADMINISTERED ON DAYS 1,8, AND 15 OF LIFE (STUDY DURATION: 52 WK)
  carcinogen call: inactive; negative
Species: MOUSE, Strain/Sex: CD-1/MALE, Route: INTRAPERITONEAL, Dose: 0, 3.46, 17.3 UMOL (TOTAL DOSE) IN DMSO ADMINISTERED ON DAYS 1,8, AND 15 OF LIFE (STUDY DURATION: 52 WK), Dose: 0, 3.46, 17.3 UMOL (TOTAL DOSE) IN DMSO ADMINISTERED ON DAYS 1,8, AND 15 OF LIFE (STUDY DURATION: 52 WK), Tumor Site: Type of Lesion: LIVER: TUMORS
  carcinogen call: active; positive

## Cc1ccccc1
Species: MOUSE, Strain/Sex: B6C3F1/FEMALE, Route: INHALATION, Dose: 0, 120, 600, 1200 PPM 6.5 HR/D 5 D/WK FOR 103 WK (STUDY DURATION: 104 WK), Dose: 0, 120, 600, 1200 PPM 6.5 HR/D 5 D/WK FOR 103 WK (STUDY DURATION: 104 WK)
  carcinogen call: inactive; negative
Species: MOUSE, Strain/Sex: B6C3F1/MALE, Route: INHALATION, Dose: 0, 120, 600, 1200 PPM 6.5 HR/D 5 D/WK FOR 103 WK (STUDY DURATION: 104 WK), Dose: 0, 120, 600, 1200 PPM 6.5 HR/D 5 D/WK FOR 103 WK (STUDY DURATION: 104 WK)
  carcinogen call: inactive; negative
Species: RAT, Strain/Sex: F344/FEMALE, Route: INHALATION, Dose: 0, 600, 1200 PPM 6.5 HR/D 5 D/WK FOR 103 WK (STUDY DURATION: 104 WK), Dose: 0, 600, 1200 PPM 6.5 HR/D 5 D/WK FOR 103 WK (STUDY DURATION: 104 WK)
  carcinogen call: inactive; negative
Species: RAT, Strain/Sex: F344/MALE, Route: INHALATION, Dose: 0, 600, 1200 PPM 6.5 HR/D 5 D/WK FOR 103 WK (STUDY DURATION: 104 WK), Dose: 0, 600, 1200 PPM 6.5 HR/D 5 D/WK FOR 103 WK (STUDY DURATION: 104 WK)
  carcinogen call: inactive; negative
Species: RAT, Strain/Sex: STRAIN-CD/MALE, Route: INTRAGASTRIC, Dose: 0, 500 MG/KG IN OLIVE OIL 1/D 4-5 D/WK FOR 104 WK (STUDY DURATION: 104 WK)
  carcinogen call: inactive; negative

— PubChem BioAssay AID1259411 (Chemical Carcinogenesis Research Information System (CCRIS), 2018)
